Laboratory results as given in the NIST ThermoML archive (doi:10.1016/j.jct.2006.07.014).
Numbers after ± are expanded uncertainties.

How the values were obtained:
[1] = Liquid; for mass density: 298.15 K, 101.33 kPa, Vibrating tube method
[2] = refractive index (Na D-line) (dimensionless); conditions: 298.15 K; 101.33 kPa; Liquid; Standard Abbe refractometry

Structure (SMILES)	mass density [1] [kg/m3]	vapor or sublimation pressure ([1]; 379.45 K) [kPa]	refractive index [2]	vapor or sublimation pressure ([1]; 353.85 K) [kPa]	vapor or sublimation pressure ([1]; 352.25 K) [kPa]	vapor or sublimation pressure ([1]; 389.15 K) [kPa]	vapor or sublimation pressure ([1]; 371.05 K) [kPa]
CC(C)CO [2-methyl-1-propanol]	797.8 ± 4.6	94.83 ± 5	1.3939 ± 0.0012				
CC(C)(C)O [2-methylpropan-2-ol]	781.2 ± 4.4		1.3852 ± 0.0012	94.83 ± 5			
CC#N [acetonitrile]	776.5 ± 4.3		1.3416 ± 0.0012		94.83 ± 5		
CCCCO [butan-1-ol]	805.8 ± 4.6		1.3974 ± 0.0012			94.83 ± 5	
CCC(C)O (stereo not given) [butan-2-ol]	802.4 ± 4.6		1.3953 ± 0.0012				94.83 ± 5
